These results are taken from patent US20140220110A1, “REMOTE LOADING OF SPARINGLY WATER-SOLUBLE DRUGS INTO LIPOSOMES” (ZONEONE PHARMA, INC., priority 2013, published 2014).

Each structure is given as a SMILES string. Values after ≈ are worked out from the molar mass of the structure shown.

Series [1] can be described thus: Remote loading of doxorubicin and 17-DMAG into ammonium sulfate liposomes with and without 25% DMSO. The class given is physicochemical. Particulars: ammonium sulfate containing liposomes. The text has this:
To test the integrity of the liposomes in 25% DMSO we attempted to remote load the water-soluble weak base drugs doxorubicin and 17-dimethylaminoethylamino-17-demethoxygeldanamycin (17-DMAG) and compared to the same loading without DMSO.

The nature of the next series: Water solubility. The series is classed as physicochemical.
Series [2] is described as follows: Remote loading of aripiprazole precipitate into liposomes. The series is classed as physicochemical. The procedure: Liposomes (HSPC/Chol/PEG-DSPE 3/2/0.15 mol/mol/mol) containing 250 mM ammonium sulfate or 250 mM sodium sulfate were diluted in 1 mL of 50 mM citric acid, 10% (wt/wt) sucrose, pH 4.0 to a concentration of 6 mM phospholipid. […] Fine precipitates were immediately observed after the drug was added to both liposome samples. The samples were heated at 65° C. for 30 min, the cooled on ice. The samples were filtered through a 0.2 um polyethersulfone syringe filter to remove any drug precipitates, followed by purification on a Sephadex G25 column equilibrated with HBS, pH 6.5 to remove any soluble extraliposome drug. The turbid fraction was collected and analyzed for lipid and drug as described above.

For series [3] the following is noted: cited from earlier work.

For `CO[C@H]1/C=C\C=C(/C)C(=O)NC2=CC(=O)C(NCCN(C)C)=C(C[C@@H](C)C[C@H](OC)[C@H](O)[C@@H](C)/C=C(\C)[C@@H]1OC(N)=O)C2=O` [Formulation 17-DMAG, 17-dimethylaminoethylamino-17-demethoxygeldanamycin], in series [1], the “% Efficiency compared to control of no DMSO” value was 73.1 ± 1.4%.

With `O=C1CCc2ccc(OCCCCN3CCN(c4cccc(Cl)c4Cl)CC3)cc2N1` [aripiprazole], the solubility in water result in “Water solubility” was “very insoluble in water”. The “Output D/L” value in series [2] ((NH4)2SO4 liposomes, input D/L 50 ug/umol) was determined as 42.28 ± 0.49 µg/µmol; in series [2] ((Na)2SO4 liposomes, input D/L 50 ug/umol) it was 0.86 ± 0.51 µg/µmol. In addition, the loading efficiency in series [2] (drug introduced as SBCD complex (from Abilify), same concentration and loading conditions) is 68%. For the same compound, the “Fold Increase NH4SO4/NaSO4” value in series [2] (input D/L 50 ug/umol) came out at 49.3.

With `O=C(O)c1ccc(-n2nc(-c3ccccc3O)nc2-c2ccccc2O)cc1` [deferasirox], the water solubility in series [3] is around 38 µg/mL (≈ 102 µM).

As to `COc1cccc2c1C(=O)c1c(O)c3c(c(O)c1C2=O)C[C@@](O)(C(=O)CO)C[C@@H]3O[C@H]1C[C@H](N)[C@H](O)[C@H](C)O1` [doxorubicin], in series [1], the “% Efficiency compared to control of no DMSO” value came to 92.7 ± 0.43%.
